Laboratory results taken from patent publication US20040081655A1, “Methods and compositions comprising polycationic compounds” (priority 2001, published 2004).
Entries after “also recorded” stand apart in the source; their conditions may differ.

Key:
TNF-α and IL-6 = test: CpG-ODN-induced systemic production of TNF-α and IL-6 in vivo, serum ELISA (Example 4); design: species or system Mice C57Bl/6; settings: one hour after injection into hind footpads, ELISA
Method: Mice were injected into each hind footpad with a total volume of 100 μl (50 μl per footpad), containing the above mentioned compounds. One hour after injection blood was taken from the tail-vein and serum was prepared. The amount of the pro-inflammatory cytokines TNF-α and IL-6 in the sera was determined by cytokine-specific ELISAs according to the manufacturer's instructions (R&D Systems, Inc., Minneapolis, Minn.).

CD11c+ sorted BM-DC = test: CpG-ODN-induced production of TNF-α and IL-6 by murine BM-DC in vitro, KLK (Example 7); format: cell-based, C57B1/6 mice; settings: 24 h
Method: Murine dendritic cells (DC) were generated from bone-marrow precursor cells of C57Bl/6 mice as previously described (Inaba 1992). Briefly, bone marrow cells were obtained by flushing the femurs and tibias with medium. Cells were depleted of lymphocytes, granulocytes and MHC class II^+cells by Ab-complement-mediated lysis. Dead cells were removed by Ficoll gradient (Ficoll Separating Solution, density […]; Biochrom KG, Germany). The remaining cells (1×10^6/ml) were cultured in 24-well culture plates in high glucose DMEM medium (PAA Laboratories GmbH, Linz, Austria; E 15-009) supplemented with 10% heat-inactivated FCS, 10. mM sodium pyruvate, 2 mM L-glutamine, […] gentamicin, 0.5 mM 2-mercaptoethanol (all supplements from PAA Laboratories GmbH, Linz, Austria), 20 ng/ml GM-CSF and 250 U/ml IL-4. On day 3 of culture, cells were fed with fresh medium. On day 6 of culture, non-adherent cells and loosely adherent aggregates were harvested, washed and re-plated in 6-well culture plates (2×10^6/5 ml). After additional 1 day of culture, non-adherent cells were collected for analyses. […] For in vitro-stimulations, day 7-cultured bone marrow cells were further enriched for CD11c^+ cells (=DC) using magnetic beads (Miltenyi, Bergisch-Gladbach, Germany). The purity of BM-DC was more than 95% as determined by flow cytometry analyses. […] Supernatants were harvested after 24 h and analysed for the production of TNF-α and IL-6 using specific ELISAs.
Murine dendritic cells (DC) were generated from bone-marrow precursor cells of C57B1/6 mice as described in example 5.

human dendritic cells = test: LPS-induced production of pro-inflammatory cytokines by human dendritic cells in vitro (Example 10); settings: for LPS-induced production of pro-inflammatory cytokines by human dendritic cells: in vitro, mode of incubation not specified; for production of IL-6 by human dendritic cells / production of TNF-a by human dendritic cells: substance alone (LPS 5 ng/ml; pR60 10 μg/ml; KLK 16, 8 μg/ml; pK 10 μg/ml), culture medium 12 h then substance 12 h
Method: Human DC were generated from monocytes. Briefly, peripheral blood leukocytes (PBLs) were isolated from buffy coats of healthy volunteers by Ficoll gradient centrifugation. Monocytes were isolated from PBLs using CD14-coated magnetic beads (Miltenyi Biotec Inc., Germany) applied according to the manufacturer's instructions. Using this method, we obtained >95% CD14^+ cells as determined by flow cytometry. These CD14^+ monocytes were cultured in RPMI 1640 medium supplemented with 10% FCS (PAA Laboratories, Linz, Austria), non-essential aminoacids, L-glutamin, gentamicin, sodium pyruvate, 100 ng/ml human GM-CSF and 500 U/ml human IL-4 in 6-well tissue plates for 6-7 days. To this end, the cultures contained >80%. MHC class II^+/CD1a^+ cells (=DC).
Human dendritic cells (DC) were generated as described in example 6. For in vitro-stimulations, day 7-cultured dendritic cells were incubated for 12 h with the indicated compounds. After centrifugation, supernatant was removed, cells were washed once with medium, then fresh medium with the indicated compounds was added, and the cells were incubated for additional 12 h. Supernatants were harvested and analyzed for the production of TNF-a and IL-6 using specific ELISAs.

[1] = tested on: human monocyte-derived DC; test: Poly I:C-induced production of pro-inflammatory cytokines by human DC in vitro (Example 6); format: cell-based; settings: substance alone, 10 μg/ml, supernatant ELISA
Method: Human DC were generated from monocytes.
To determine, which cytokines are induced/produced by DC upon poly I:C and/or pR stimulation, DC were incubated with different stimuli for 12 and 24 hours, supernatants were harvested, stored at −20° C. and screened for the presence of respective cytokines by specific ELISAs.

[2] = mixture of CpG-ODN 1668 (0.5 nmol/ml) and KLK (16, 8 μg/ml)
[3] = substance alone (KLK 16, 8 μg/ml; CpG-ODN 1668 0.5 nmol/ml), supernatant ELISA
[4] = cells pre-incubated with polycationic compound 12 h, then LPS 12 h
[5] = mixture of LPS and polycationic compound, 12 h

Compound | LPS-induced production of IL-6 by human dendritic cells (human dendritic cells; [4]) | LPS-induced production of TNF-a by human dendritic cells (human dendritic cells; [4]) | LPS-induced production of pro-inflammatory cytokines by human dendritic cells (human dendritic cells) | LPS-induced production of IL-6 by human dendritic cells (human dendritic cells; [5]) | LPS-induced production of TNF-a by human dendritic cells (human dendritic cells; [5]) | production of IL-6 by human dendritic cells (human dendritic cells) | production of TNF-a by human dendritic cells (human dendritic cells) | also measured
CC[C@H](C)[C@H](NC(=O)[C@@H](NC(=O)[C@@H](N)CO)[C@@H](C)CC)C(=O)N[C@@H](CC(N)=O)C(=O)N[C@@H](Cc1ccccc1)C(=O)N[C@@H](CCC(=O)O)C(=O)N[C@@H](CCCCN)C(=O)N[C@@H](CC(C)C)C(=O)O [OVA257-264, reference compound] |  |  |  |  |  |  |  | production of IL-6 in serum after injection (TNF-α and IL-6): does not-induce the production of detectable amounts; production of TNF-α in serum after injection (TNF-α and IL-6): does not-induce the production of detectable amounts; production of IL-6 in serum after injection (TNF-α and IL-6; listed as OVA257-264-peptide): neither the injection of OVA257-264-peptide alone nor in combination with poly-L-arginine led to the induction of significant amounts; production of TNF-α in serum after injection (TNF-α and IL-6; listed as OVA257-264-peptide): neither the injection of OVA257-264-peptide alone nor in combination with poly-L-arginine led to the induction of significant amounts
KLKLLLLLKLK | inhibited | inhibited | decrease | inhibited | inhibited | could not detect any | could not detect any | CpG-ODN 1668-induced production of IL-6 by murine BM-DC (CD11c+ sorted BM-DC; [2]): inhibited; also recorded: abrogates; CpG-ODN 1668-induced production of TNF-a by murine BM-DC (CD11c+ sorted BM-DC; [2]): inhibited; also recorded: abrogates; production of IL-6 by murine BM-DC (CD11c+ sorted BM-DC; [3]): could not detect any; production of TNF-a by murine BM-DC (CD11c+ sorted BM-DC; [3]): could not detect any
Poly-D-lysine Hydrobromide | inhibited | inhibited | decrease | inhibited | inhibited | could not detect any | could not detect any | 
Polyinosinic-polycytidylic acid [poly I:C, reference compound] |  |  |  |  |  |  |  | production of IL-6 by human DC ([1]; 12 and 24 hours): triggers the production; production of TNF-α by human DC ([1]; 12 and 24 hours): triggers the production; production of IL-12/p70 by human DC [1]: produced IL-12/p70
